# Reference: EP0802730B1, “PESTICIDAL COMPOUNDS” (BTG INTERNATIONAL LIMITED, priority 1995, dated 1996)
# Where two headings read alike, the source gives them in different places. Marks after values point to notes of the source that are not given here.
# What was measured:
# Type in all cases: in vivo
# [1] = system: Mites (TU) (Tetranychus urticae), susceptible strain (GSS); experiment: Mite immersion test, susceptible strain GSS
# Experimental: 25 adult female mites were immersed in 35 µl of a solution of the test compound in a 1:4 acetone-water mixture for 30 seconds. The treated insects were maintained at 21° ± 2°C and kill was assessed 72 hours after treatment. […] Three replicates of 25 mites each were used at each dose rate and 5 or 6 dose rates were used per compound under test. LC50 values were calculated in ppm of the solution of the test compound per insect. The test was carried out using a susceptible strain of mites (GSS) supplied by Schering, AG, Berlin.
# [2] = system: Mustard beetles (PC) (Phaedon cochleariae Fab); details: for PC LD50 (µg/insect): Tables 10, 13, 14
# Experimental: A one microlitre drop of an acetone solution of the test compound was applied ventrally to adult mustard beetles using a micro drop applicator. The treated insects were maintained for 48 hours after which time kill was assessed. Two replicates each of 20 to 25 mustard beetles were used at each dose level and 5 dose levels were treated comparably. LD50 values were calculated as for houseflies.
# [3] = system: Whitefly (BT) (Bemisia tabaci), susceptible strain (SUD-S); experiment: Whitefly residual film vial test, susceptible strain SUD-S
# Experimental: Acetone solutions (0.100 ml) of the test compounds were placed in 10 ml glass vials and evaporated with rotation to deposit a film of the compound. Thirty adult whiteflies were placed inside the vial, then after 60 minutes, the treated insects were transferred onto untreated cotton leaf discs which were kept moist on a bed of agar gel. The temperature was maintained at 25°C and mortality assessed after 48 hours. Three replicates were used at each of 5 to 7 dose levels per compound.
# [4] = system: Houseflies (MD) (Musca domestica); details: for MD LD50 (µg/insect): Tables 10, 13, 14, NA = lack of detectable activity
# Experimental: Female flies were treated on the thorax with a one microlitre drop of test compound dissolved in acetone. Two replicates of 15 flies were used at each dose rate and 6 dose rates were used per compound under test. After treatment, the flies were maintained at a temperature of 20° ± 1°C and kill was assessed 24 and 48 hours after treatment. LD50 values were calculated in micrograms of test compound per fly (see Sawicki et al., Bulletin of the World Health Organisation, 35, 893 (1966) and Sawicki et al., Entomologia and Exp. Appli 10, 253, (1967).
# [5] = system: Myzus persicae, susceptible strain (US1L); experiment: Aphid dip test, susceptible strain; details: read-out: MP % kill 100 ppm
# Experimental: Activity against resistant (R) and susceptible (S) strains of aphid (Myzus persicae) was assessed using the following method.
# Entrapment rings of fluon were painted halfway up the inside of 4 cm lengths of glass tubing (1.5 cm diameter), and squares of insect-proof gauze were attached to one end of each tube by elastic bands. Fifteen apterous adults were then gently transferred into the tubes using a sable-hair brush, and the tube sealed with a second gauze square.
# Tubes containing aphids were dipped into insecticide solutions for 10 seconds, dried on blotting paper, and then inverted and tapped to cause treated aphids to fall to the unimmersed end of each tube. Handling mortality (usually zero or very slight) was scored after 1 hour, when aphids were transferred onto chinese cabbage leaf-discs (35 mm diameter) on an agar bed (25 mm in depth) in disposible plastic containers (30 mm high) and confined by applying a ring of fluon to the exposed lip of the container. Containers were store upright, without lids, in a constant environment facility maintained at 25°C under continuous room lighting. Mortality was assessed at 24, 48 and 72 hours. Two replicates of 15 aphids each were used at each dose rate and 5 or 6 dose rates were used per compound under test.
# The test was carried out using a susceptible strain of aphids (US1L) collected in the field in East Anglia, UK and an extremely resistant strain of aphids (794Jz) (R3 esterase, sensitive AChE) collected from glasshouses in the UK.
# The values given are % mortality corrected for control data. The control comprised the test solution without active ingredient.
# [6] = 72 h, Tables 10, 13, 14, susceptible strain, NA = lack of detectable activity, read-out: TU LC50 (ppm/insect)
# [7] = NA = lack of detectable activity
# [8] = 48 h, Tables 10, 13, 14, susceptible strain, NA = lack of detectable activity, read-out: BT LC50 (ppm/insect)
# [9] = ppm solution of test compound, 30 seconds immersion, kill at 72 hours, read-out: TU(GSS) (LC50)
# [10] = 1 µl acetone drop applied ventrally to adults, kill at 48 hours, NA = lack of detectable activity
# [11] = ppm solution of test compound, 60 minutes film exposure, mortality after 48 hours, read-out: BT(SUD-S) (LC50)
# [12] = topical 1 µl drop in acetone on female flies, kill assessed 24 and 48 hours
smiles,measurement,setting,value
"CCCC1=C(O)C(=O)c2ccccc2C1=O [-(CH2)2CH3, reference compound]",LC50,[1]; [6],~1000 µg/mL
same,PC LD50 (µg/insect),[2]; [7],c10 µg/insect
same,LC50,[3]; [8],80 µg/mL
"CCCCC1=C(O)C(=O)c2ccccc2C1=O [-(CH2)3CH3, reference compound]",LC50,[1]; [6],65 µg/mL
same,PC LD50 (µg/insect),[2]; [7],c5 µg/insect
same,LC50,[3]; [8],13 µg/mL
same,MD LD50 (µg/insect),[4],c10 µg/insect
"CCCCCC1=C(O)C(=O)c2ccccc2C1=O [-(CH2)4CH3, reference compound]",LC50,[1]; [6],16 µg/mL
same,PC LD50 (µg/insect),[2]; [7],c7 µg/insect
same,LC50,[3]; [8],17 µg/mL
"CCCCCCCCC1=C(O)C(=O)c2ccccc2C1=O [-(CH2)7CH3, reference compound]",LC50,[1]; [6],~1000 µg/mL
same,PC LD50 (µg/insect),[2]; [7],0.78 µg/insect
same,LC50,[3]; [8],19 µg/mL
same,MD LD50 (µg/insect),[4],1.9 µg/insect
"CCCCCCCCCCC1=C(O)C(=O)c2ccccc2C1=O [-(CH2)9CH3, reference compound]",LC50,[1]; [6],5.5 µg/mL
same,PC LD50 (µg/insect),[2]; [7],1.9 µg/insect
same,LC50,[3]; [8],> 100 µg/mL
"CCCCCCCCCCCC1=C(O)C(=O)c2ccccc2C1=O [-(CH2)10CH3, reference compound]",LC50,[1]; [6],1.4 µg/mL
same,PC LD50 (µg/insect),[2]; [7],c0.4 µg/insect
same,LC50,[3]; [8],> 100 µg/mL
"CCCCCCCCCCCCC1=C(O)C(=O)c2ccccc2C1=O [-(CH2)11CH3, reference compound]",LC50,[1]; [6],< 60 µg/mL
same,LC50,[3]; [8],> 100 µg/mL
same,mortality at 100 ppm,[5],0%
"CCCCCCCCCCCCCCC1=C(O)C(=O)c2ccccc2C1=O [-(CH2)13CH3, reference compound]",LC50,[1]; [6],1.3 µg/mL
"CC(C)(C)C1CCC(C2=C(O)C(=O)c3ccccc3C2=O)CC1 (stereo not drawn) [Compound B, 2-hydroxy-3-(4-t-butylcyclohexyl)-naphthalene-1,4-dione, reference compound]",LC50,"[1]; 72 h, text b201, no unit printed there, read-out: TU (GSS) LC50",44 µg/mL
same,PC (LD50),"[2]; mustard beetle, in vivo, 2880 min",0.53
same,LC50,"[3]; 48 h, text b201, no unit printed there, read-out: BT(SUD-S) LC50",18 µg/mL
same,MD (LD50),"[4]; house fly, in vivo",15.5
C=CC(C)(C)C1=C(OC(=O)CC)C(=O)c2ccccc2C1=O [Example 4],LC50,[1]; [9],18 µg/mL
same,PC (LD50),[2]; [10],3.9 µg/insect
same,LC50,[3]; [11],5.3 µg/mL
same,MD (LD50),[4]; [12],8.2 µg/insect
C=CC(C)(C)C1=C(OC(=O)CCCC)C(=O)c2ccccc2C1=O [Example 6],LC50,[1]; [9],27 µg/mL
same,PC (LD50),[2]; [10],2.1 µg/insect
same,LC50,[3]; [11],16 µg/mL
same,MD (LD50),[4]; [12],c. 2.0 µg/insect
C=CC(C)(C)C1=C(OC(=O)CCCCC)C(=O)c2ccccc2C1=O [Example 7],LC50,[1]; [9],53 µg/mL
same,PC (LD50),[2]; [10],c. 6.0 µg/insect
same,LC50,[3]; [11],< 100 µg/mL
same,MD (LD50),[4]; [12],> 20 µg/insect
C=CC(C)(C)C1=C(OC(=O)CF)C(=O)c2ccccc2C1=O [Example 9],LC50,"[1]; 72 h, read-out: TU(GSS) (LC50)",140 µg/mL
same,PC (LD50),[2]; [10],0.41 µg/insect
same,LC50,"[3]; 48 h, read-out: BT(SUD-S) (LC50)",13.4 µg/mL
C=CC(C)(C)C1=C(OC(=O)C(C)C)C(=O)c2ccccc2C1=O [Example 10],LC50,[1]; [9],15 µg/mL
same,PC (LD50),[2]; [10],c. 6.0 µg/insect
same,LC50,[3]; [11],35 µg/mL
same,MD (LD50),[4]; [12],> 20 µg/insect
C=CC(C)(C)C1=C(OC(=O)c2ccccc2)C(=O)c2ccccc2C1=O [Example 11],LC50,[1]; [9],~50 µg/mL
"C=CC(C)(C)C1=C(OC)C(=O)c2ccccc2C1=O [Example 12, 2-(1,1-dimethylprop-2-enyl)-3-methoxy-naphthalene-1,4-dione]",PC (LD50),[2]; [10],c. 12.0 µg/insect
same,MD (LD50),[4]; [12],> 20 µg/insect
"C=CC(C)(C)C1=C(O)C(OC)(OC)c2ccccc2C1=O [Example 14, 1,1-dimethoxy-2-hydroxy-3-(1,1-dimethylprop-2-enyl)-naphthalene-4-one]",LC50,[1]; [9],~800 µg/mL
same,PC (LD50),[2]; [10],c. 6.0 µg/insect
same,MD (LD50),[4]; [12],c. 2.5 µg/insect
C=CC(C)(C)C1=C(O)C(=NOC)c2ccccc2C1=O [Example 15],PC % Kill at 20 µg/insect,"[2]; mustard beetle, in vivo, topical or ocular, 48 h",35% *
same,mortality at 1000 ppm,"[3]; 48 h, read-out: BT(SUD-S) % Kill at 1000 ppm solution of test compound",97%
CCCC(C)(C)C1=C(O)C(=O)c2ccccc2C1=O [Example 16],LC50,[1]; [9],91 µg/mL
same,PC (LD50),[2]; [10],c. 10 µg/insect
same,LC50,[3]; [11],10 µg/mL
same,MD (LD50),[4]; [12],8.8 µg/insect
CCCC(C)(C)C1=C(OC(=O)CC)C(=O)c2ccccc2C1=O [Example 17],LC50,[1]; [9],50 µg/mL
same,MD (LD50),[4]; [12],14 µg/insect
CCCCCC(C)(C)C1=C(O)C(=O)c2ccccc2C1=O [Example 18],LC50,[1]; [9],~100 µg/mL
same,PC (LD50),[2]; [10],c. 15 µg/insect
same,LC50,[3]; [11],10 µg/mL
same,MD (LD50),[4]; [12],13 µg/insect
"CC1(C2=C(O)C(=O)c3ccccc3C2=O)CCCC1 [Example 24, 2-hydroxy-3-(1'-methylcyclopentyl)-naphthalene-1,4-dione]",LC50,[1]; [6],48 µg/mL
same,LC50,[3]; [8],33 µg/mL
same,mortality at 100 ppm,[5],44%
"CCC1(C2=C(O)C(=O)c3ccccc3C2=O)CCCCC1 [Example 26, 2-(1'-ethylcyclohexyl)-3-hydroxy-naphthalene-1,4-dione]",LC50,[1]; [6],> 100 µg/mL
same,PC LD50 (µg/insect),[2]; [7],2.9 µg/insect
same,LC50,[3]; [8],2.9 µg/mL
same,MD LD50 (µg/insect),[4],13 µg/insect
"C=CC1(C2=C(O)C(=O)c3ccccc3C2=O)CCCCC1 [Example 27, 2-(1'-ethenecyclohexyl)-3-hydroxy-naphthalene-1,4-dione]",LC50,[1]; [6],~80 µg/mL
same,PC LD50 (µg/insect),[2]; [7],4.7 µg/insect
same,LC50,[3]; [8],0.9 µg/mL
same,MD LD50 (µg/insect),[4],6.0 µg/insect
"O=C1C(O)=C(C2(C(F)(F)F)CCCCC2)C(=O)c2ccccc21 [Example 28, 2-hydroxy-3-(1'-trifluoromethylcyclohexyl)-naphthalene-1,4-dione]",LC50,[1]; [6],40 µg/mL
same,LC50,[3]; [8],24 µg/mL
same,mortality at 100 ppm,[5],5%
same,MD LD50 (µg/insect),[4],14 µg/insect
C=CC1(C2=C(O)C(=O)c3ccccc3C2=O)CCCC1 [Example 30],LC50,[1]; [6],6 µg/mL
same,PC LD50 (µg/insect),[2]; [7],<20 µg/insect
same,LC50,[3]; [8],~50 µg/mL
same,MD LD50 (µg/insect),[4],15 µg/insect
"CC(C)(C)CC1=C(O)C(=O)c2ccccc2C1=O [Example 35, 2-(2,2-dimethylpropyl)-3-hydroxy-naphthalene-1,4-dione]",PC LD50 (µg/insect),[2]; [7],4.6 µg/insect
same,LC50,[3]; [8],~12 µg/mL
same,MD LD50 (µg/insect),[4],1.2 µg/insect
"CC(C)(C)CCC1=C(O)C(=O)c2ccccc2C1=O [Example 36, 2-(3,3-dimethylbutyl)-3-hydroxy-naphthalene-1,4-dione]",LC50,[1]; [6],36 µg/mL
same,PC LD50 (µg/insect),[2]; [7],1.3 µg/insect
same,LC50,[3]; [8],~7 µg/mL
same,mortality at 100 ppm,[5],~24%
"CC(C)(C)CCCC1=C(O)C(=O)c2ccccc2C1=O [Example 37, 2-(4,4-dimethylpentyl)-3-hydroxy-naphthalene-1,4-dione]",LC50,[1]; [6],2.9 µg/mL
same,LC50,[3]; [8],16 µg/mL
same,mortality at 100 ppm,[5],~70%
"CC(C)(C)C=CC1=C(O)C(=O)c2ccccc2C1=O [Example 42, 2-(3,3-dimethyl-but-1-enyl)-3-hydroxy-naphthalene-1,4-dione]",LC50,[1]; [6],~100 µg/mL
same,PC LD50 (µg/insect),[2]; [7],3.6 µg/insect
same,LC50,[3]; [8],17 µg/mL
"CC(C)(C)C=CCCCC1=C(O)C(=O)c2ccccc2C1=O [Example 43, 2-(6,6-dimethylhep-4-enyl)-3-hydroxy-naphthalene-1,4-dione]",LC50,[1]; [6],11.5 µg/mL
same,LC50,[3]; [8],~60 µg/mL
same,mortality at 100 ppm,[5],~100%
C=CC(C)(C)CCC1=C(O)C(=O)c2ccccc2C1=O [Example 50],LC50,[1]; [6],6.5 µg/mL
same,LC50,[3]; [8],16 µg/mL
